Measured values published in ChEMBL document CHEMBL2417435, “The discovery of potent blockers of the canonical transient receptor channels, TRPC3 and TRPC6, based on an anilino-thiazole pharmacophore” (Bioorg Med Chem Lett, 2013).
Blank lines part the entries; values can stand above or below the compound they belong to. Activity calls are given as the source filed them. The rule behind the calls is not given here.

Tests used:
[1] = target: T1, Short transient receptor potential channel 3 (Homo sapiens, UniProt Q13507); experiment: Inhibition of human recombinant TRPC3 expressed in HEK293-MSRII cells assessed as carbachol-stimulated Ca2+/Na+ influx after 10 mins by FLIPR assay; assay type: cell-based
T1 sequence (Q13507 whole entry): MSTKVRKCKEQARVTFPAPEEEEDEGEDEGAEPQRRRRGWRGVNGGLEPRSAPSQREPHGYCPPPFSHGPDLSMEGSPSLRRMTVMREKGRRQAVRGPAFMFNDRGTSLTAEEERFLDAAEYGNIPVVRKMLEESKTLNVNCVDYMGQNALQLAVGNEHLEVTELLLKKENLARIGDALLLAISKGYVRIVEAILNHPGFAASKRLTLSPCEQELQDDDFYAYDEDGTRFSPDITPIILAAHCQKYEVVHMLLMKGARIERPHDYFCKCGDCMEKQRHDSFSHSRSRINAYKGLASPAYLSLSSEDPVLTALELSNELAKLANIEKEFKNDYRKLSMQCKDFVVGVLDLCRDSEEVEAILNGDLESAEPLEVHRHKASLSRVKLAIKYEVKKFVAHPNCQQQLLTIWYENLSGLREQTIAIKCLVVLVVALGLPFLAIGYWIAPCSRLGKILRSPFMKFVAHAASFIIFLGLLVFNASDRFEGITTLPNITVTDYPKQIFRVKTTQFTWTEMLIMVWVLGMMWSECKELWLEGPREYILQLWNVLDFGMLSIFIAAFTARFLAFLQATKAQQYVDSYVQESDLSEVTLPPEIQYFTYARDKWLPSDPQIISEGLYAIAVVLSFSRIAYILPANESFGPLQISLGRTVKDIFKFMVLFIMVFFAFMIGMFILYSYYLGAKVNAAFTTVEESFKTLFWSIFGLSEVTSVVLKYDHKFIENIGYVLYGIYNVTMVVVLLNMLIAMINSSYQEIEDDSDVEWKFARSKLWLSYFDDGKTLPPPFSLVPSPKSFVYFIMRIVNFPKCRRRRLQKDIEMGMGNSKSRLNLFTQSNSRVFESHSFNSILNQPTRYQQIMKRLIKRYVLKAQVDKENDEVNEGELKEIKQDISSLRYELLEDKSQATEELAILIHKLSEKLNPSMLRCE

[2] = target: T2, Short transient receptor potential channel 6 (Homo sapiens, UniProt Q9Y210); experiment: Inhibition of human recombinant TRPC6 expressed in HEK293-MSRII cells assessed as carbachol-stimulated Ca2+/Na+ influx after 10 mins by FLIPR assay; assay type: cell-based
T2 sequence (Q9Y210 whole entry): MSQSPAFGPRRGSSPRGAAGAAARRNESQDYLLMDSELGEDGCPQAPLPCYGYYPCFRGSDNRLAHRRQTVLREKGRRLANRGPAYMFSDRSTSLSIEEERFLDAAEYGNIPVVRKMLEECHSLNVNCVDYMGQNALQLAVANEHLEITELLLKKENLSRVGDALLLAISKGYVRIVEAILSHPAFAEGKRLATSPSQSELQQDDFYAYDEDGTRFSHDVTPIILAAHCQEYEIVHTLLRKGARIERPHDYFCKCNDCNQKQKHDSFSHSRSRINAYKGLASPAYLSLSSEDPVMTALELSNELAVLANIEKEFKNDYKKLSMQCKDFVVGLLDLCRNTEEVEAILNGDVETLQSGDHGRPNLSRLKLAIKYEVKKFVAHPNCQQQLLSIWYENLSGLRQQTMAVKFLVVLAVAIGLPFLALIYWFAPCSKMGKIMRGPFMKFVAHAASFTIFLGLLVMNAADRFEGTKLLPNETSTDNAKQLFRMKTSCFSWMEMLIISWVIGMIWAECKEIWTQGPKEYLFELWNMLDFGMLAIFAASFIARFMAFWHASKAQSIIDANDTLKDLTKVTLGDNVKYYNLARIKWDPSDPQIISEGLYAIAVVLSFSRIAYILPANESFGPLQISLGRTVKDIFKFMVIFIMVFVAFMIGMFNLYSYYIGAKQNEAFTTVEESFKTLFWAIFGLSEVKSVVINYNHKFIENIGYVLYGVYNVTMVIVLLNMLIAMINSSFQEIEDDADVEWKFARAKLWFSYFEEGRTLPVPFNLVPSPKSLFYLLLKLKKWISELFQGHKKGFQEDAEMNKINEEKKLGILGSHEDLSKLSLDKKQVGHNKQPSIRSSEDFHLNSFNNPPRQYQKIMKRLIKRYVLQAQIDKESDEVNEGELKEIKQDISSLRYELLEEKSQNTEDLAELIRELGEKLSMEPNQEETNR

[3] = target: Transient receptor potential cation channel subfamily A member 1 (Homo sapiens, UniProt O75762); experiment: Inhibition of TRPA1 (unknown origin) by FLIPR assay
[4] = Mean residence time in rat at 0.82 mg/kg, iv; assay type: ADME, organism-based; set-up: dose 0.82 mg/kg, route intravenous; details: in vivo
[5] = target: Transient receptor potential cation channel subfamily V member 1 (Homo sapiens, UniProt Q8NER1); experiment: Inhibition of TRPV1 (unknown origin) by FLIPR assay
[6] = Clearance in rat at 0.82 mg/kg, iv; assay type: ADME, organism-based; set-up: dose 0.82 mg/kg, route intravenous; details: in vivo
[7] = target: Voltage-dependent L-type calcium channel subunit alpha-1C (Homo sapiens, UniProt Q13936); experiment: Inhibition of CaV1.2 channel (unknown origin) by patch express-based electrophysiology assay
[8] = target: Sodium channel protein type 5 subunit alpha (Homo sapiens, UniProt Q14524); experiment: Inhibition of NaV1.5 channel (unknown origin) by patch express-based electrophysiology assay
[9] = target: Transient receptor potential cation channel subfamily V member 4 (Homo sapiens, UniProt Q9HBA0); experiment: Inhibition of TRPV4 (unknown origin) by FLIPR assay
Rattus norvegicus [10] = experiment: Dose normalized AUC in rat at 0.82 mg/kg, iv; assay type: ADME, organism-based; set-up: dose 0.82 mg/kg, route intravenous; details: in vivo
[11] = Oral bioavailability in rat at 0.82 mg/kg; assay type: ADME, organism-based; details: in vivo
[12] = Cmax in rat at 0.82 mg/kg, iv; assay type: ADME, organism-based; set-up: dose 0.82 mg/kg, route intravenous; details: in vivo
[13] = Oral bioavailability in rat at 1.05 mg/kg; assay type: ADME, organism-based; details: in vivo
Rattus norvegicus [14] = experiment: Dose normalized AUC in rat at 1.05 mg/kg, iv; assay type: ADME, organism-based; set-up: dose 1.05 mg/kg, route intravenous; details: in vivo
[15] = Clearance in rat at 1.05 mg/kg, iv; assay type: ADME, organism-based; set-up: dose 1.05 mg/kg, route intravenous; details: in vivo
[16] = Cmax in rat at 1.05 mg/kg, iv; assay type: ADME, organism-based; set-up: dose 1.05 mg/kg, route intravenous; details: in vivo
[17] = Mean residence time in rat at 1.05 mg/kg, iv; assay type: ADME, organism-based; set-up: dose 1.05 mg/kg, route intravenous; details: in vivo
[18] = Oral bioavailability in rat at 0.93 mg/kg; assay type: ADME, organism-based; details: in vivo
Rattus norvegicus [19] = experiment: Mean residence time in rat at 0.93 mg/kg, iv; assay type: ADME, organism-based; set-up: dose 0.93 mg/kg, route intravenous; details: in vivo
Rattus norvegicus [20] = experiment: Dose normalized AUC in rat at 0.93 mg/kg, iv; assay type: ADME, organism-based; set-up: dose 0.93 mg/kg, route intravenous; details: in vivo
Rattus norvegicus [21] = experiment: Volume of distribution at steady state in rat at 0.93 mg/kg, iv; assay type: ADME, organism-based; set-up: dose 0.93 mg/kg, route intravenous; details: in vivo
[22] = Cmax in rat at 0.93 mg/kg, iv; assay type: ADME, organism-based; set-up: dose 0.93 mg/kg, route intravenous; details: in vivo
[23] = target: T3, Short transient receptor potential channel 6 (Homo sapiens) (UniProt Q9Y210); experiment: Inhibition of human recombinant TRPC6 expressed in HEK293 cells assessed as 1-oleoyl-2-acetyl-glycerol-stimulated current at 0.01 to 0.03 uM by whole cell electrophysiology assay; assay type: cell-based
T3 sequence (whole entry): T2 sequence (Q9Y210 whole entry)

[24] = target: T4, Short transient receptor potential channel 3 (Homo sapiens) (UniProt Q13507); experiment: Inhibition of human recombinant TRPC3 expressed in HEK293 cells assessed as 1-oleoyl-2-acetyl-glycerol-stimulated current at 0.01 to 0.03 uM by whole cell electrophysiology assay; assay type: cell-based
T4 sequence (whole entry): T1 sequence (Q13507 whole entry)

[25] = Cmax in rat at 1.06 mg/kg, iv; assay type: ADME, organism-based; set-up: dose 1.06 mg/kg, route intravenous; details: in vivo
[26] = Oral bioavailability in rat at 1.06 mg/kg; assay type: ADME, organism-based; details: in vivo
Rattus norvegicus [27] = experiment: Dose normalized AUC in rat at 1.06 mg/kg, iv; assay type: ADME, organism-based; set-up: dose 1.06 mg/kg, route intravenous; details: in vivo
[28] = Volume of distribution at steady state in rat at 1.06 mg/kg, iv; assay type: ADME, organism-based; set-up: dose 1.06 mg/kg, route intravenous; details: in vivo, read-out: Vdss
[29] = Mean residence time in rat at 1.06 mg/kg, iv; assay type: ADME, organism-based; set-up: dose 1.06 mg/kg, route intravenous; details: in vivo
[30] = Clearance in rat at 1.06 mg/kg, iv; assay type: ADME, organism-based; set-up: dose 1.06 mg/kg, route intravenous; details: in vivo

Transient receptor potential cation channel subfamily V member 1, sequence (Q8NER1 whole entry): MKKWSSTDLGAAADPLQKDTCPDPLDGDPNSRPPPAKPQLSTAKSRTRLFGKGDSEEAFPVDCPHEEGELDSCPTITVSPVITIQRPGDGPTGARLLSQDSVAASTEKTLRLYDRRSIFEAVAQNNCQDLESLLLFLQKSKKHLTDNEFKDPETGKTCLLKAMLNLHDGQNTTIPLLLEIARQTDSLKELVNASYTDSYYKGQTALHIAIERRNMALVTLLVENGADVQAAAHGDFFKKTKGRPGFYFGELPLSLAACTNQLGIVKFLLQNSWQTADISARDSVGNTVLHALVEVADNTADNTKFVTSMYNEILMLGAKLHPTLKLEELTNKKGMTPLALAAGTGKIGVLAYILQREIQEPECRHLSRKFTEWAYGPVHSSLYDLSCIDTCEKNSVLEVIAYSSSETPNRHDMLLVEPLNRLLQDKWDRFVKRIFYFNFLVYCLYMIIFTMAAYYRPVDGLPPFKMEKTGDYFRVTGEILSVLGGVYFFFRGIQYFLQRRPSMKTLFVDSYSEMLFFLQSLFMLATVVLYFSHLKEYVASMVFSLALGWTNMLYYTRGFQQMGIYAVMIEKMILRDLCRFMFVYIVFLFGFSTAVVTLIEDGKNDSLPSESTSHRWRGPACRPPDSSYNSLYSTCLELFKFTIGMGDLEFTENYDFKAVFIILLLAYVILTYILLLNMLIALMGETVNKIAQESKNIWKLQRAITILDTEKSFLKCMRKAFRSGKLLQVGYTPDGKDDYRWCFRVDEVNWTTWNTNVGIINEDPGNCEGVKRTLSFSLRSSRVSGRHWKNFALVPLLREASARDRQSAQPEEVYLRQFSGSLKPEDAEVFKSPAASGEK
Sodium channel protein type 5 subunit alpha, sequence (Q14524 whole entry): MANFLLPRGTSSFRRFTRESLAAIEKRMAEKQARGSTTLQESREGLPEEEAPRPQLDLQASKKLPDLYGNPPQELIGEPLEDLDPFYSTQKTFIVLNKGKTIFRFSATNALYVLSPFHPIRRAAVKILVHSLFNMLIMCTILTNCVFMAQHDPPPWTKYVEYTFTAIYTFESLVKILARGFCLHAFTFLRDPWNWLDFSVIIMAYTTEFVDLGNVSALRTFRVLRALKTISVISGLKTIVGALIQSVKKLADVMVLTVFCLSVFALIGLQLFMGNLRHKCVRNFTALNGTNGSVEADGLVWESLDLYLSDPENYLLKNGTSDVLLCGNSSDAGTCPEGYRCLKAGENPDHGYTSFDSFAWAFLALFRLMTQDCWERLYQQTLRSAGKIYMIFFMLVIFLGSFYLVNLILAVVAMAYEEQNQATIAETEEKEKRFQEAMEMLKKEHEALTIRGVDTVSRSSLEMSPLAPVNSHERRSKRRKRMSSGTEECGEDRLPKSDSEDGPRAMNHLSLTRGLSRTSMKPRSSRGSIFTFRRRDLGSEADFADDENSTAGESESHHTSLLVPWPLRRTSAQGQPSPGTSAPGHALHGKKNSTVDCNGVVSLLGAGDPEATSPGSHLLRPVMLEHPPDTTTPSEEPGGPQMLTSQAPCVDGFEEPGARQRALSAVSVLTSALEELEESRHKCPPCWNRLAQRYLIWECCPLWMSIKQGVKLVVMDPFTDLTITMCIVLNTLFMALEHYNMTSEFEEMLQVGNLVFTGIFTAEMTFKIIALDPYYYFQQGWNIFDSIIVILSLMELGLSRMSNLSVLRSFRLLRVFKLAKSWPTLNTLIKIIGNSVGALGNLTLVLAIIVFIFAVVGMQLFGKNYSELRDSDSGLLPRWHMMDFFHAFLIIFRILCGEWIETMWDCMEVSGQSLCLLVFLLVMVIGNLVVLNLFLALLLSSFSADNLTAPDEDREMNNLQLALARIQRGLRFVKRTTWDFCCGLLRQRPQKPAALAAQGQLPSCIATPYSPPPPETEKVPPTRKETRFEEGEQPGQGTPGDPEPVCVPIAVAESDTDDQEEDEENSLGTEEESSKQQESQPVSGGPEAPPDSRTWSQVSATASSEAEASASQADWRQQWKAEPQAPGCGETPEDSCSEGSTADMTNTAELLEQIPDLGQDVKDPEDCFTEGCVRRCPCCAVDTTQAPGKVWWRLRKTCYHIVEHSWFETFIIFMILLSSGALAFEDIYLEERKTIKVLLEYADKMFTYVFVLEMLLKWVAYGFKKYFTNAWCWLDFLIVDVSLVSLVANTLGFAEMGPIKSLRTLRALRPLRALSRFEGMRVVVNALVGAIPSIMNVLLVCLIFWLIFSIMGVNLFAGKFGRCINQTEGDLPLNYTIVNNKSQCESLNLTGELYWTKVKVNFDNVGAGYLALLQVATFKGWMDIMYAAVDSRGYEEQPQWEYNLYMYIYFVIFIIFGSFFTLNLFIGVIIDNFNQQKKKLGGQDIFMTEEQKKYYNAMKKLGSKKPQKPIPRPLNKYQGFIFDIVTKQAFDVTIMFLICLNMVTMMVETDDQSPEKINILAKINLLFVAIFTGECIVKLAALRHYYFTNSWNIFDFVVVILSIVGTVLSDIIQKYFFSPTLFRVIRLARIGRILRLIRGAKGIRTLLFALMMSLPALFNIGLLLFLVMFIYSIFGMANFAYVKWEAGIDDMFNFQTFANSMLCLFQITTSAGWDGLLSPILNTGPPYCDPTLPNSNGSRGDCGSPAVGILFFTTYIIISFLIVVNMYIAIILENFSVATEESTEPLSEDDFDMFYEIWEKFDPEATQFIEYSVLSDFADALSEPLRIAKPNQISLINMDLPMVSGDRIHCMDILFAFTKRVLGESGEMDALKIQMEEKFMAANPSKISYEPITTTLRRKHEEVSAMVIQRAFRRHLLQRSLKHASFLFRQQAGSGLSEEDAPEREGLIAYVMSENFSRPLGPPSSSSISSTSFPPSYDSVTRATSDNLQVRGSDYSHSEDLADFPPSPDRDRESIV
Transient receptor potential cation channel subfamily V member 4, sequence (Q9HBA0 whole entry): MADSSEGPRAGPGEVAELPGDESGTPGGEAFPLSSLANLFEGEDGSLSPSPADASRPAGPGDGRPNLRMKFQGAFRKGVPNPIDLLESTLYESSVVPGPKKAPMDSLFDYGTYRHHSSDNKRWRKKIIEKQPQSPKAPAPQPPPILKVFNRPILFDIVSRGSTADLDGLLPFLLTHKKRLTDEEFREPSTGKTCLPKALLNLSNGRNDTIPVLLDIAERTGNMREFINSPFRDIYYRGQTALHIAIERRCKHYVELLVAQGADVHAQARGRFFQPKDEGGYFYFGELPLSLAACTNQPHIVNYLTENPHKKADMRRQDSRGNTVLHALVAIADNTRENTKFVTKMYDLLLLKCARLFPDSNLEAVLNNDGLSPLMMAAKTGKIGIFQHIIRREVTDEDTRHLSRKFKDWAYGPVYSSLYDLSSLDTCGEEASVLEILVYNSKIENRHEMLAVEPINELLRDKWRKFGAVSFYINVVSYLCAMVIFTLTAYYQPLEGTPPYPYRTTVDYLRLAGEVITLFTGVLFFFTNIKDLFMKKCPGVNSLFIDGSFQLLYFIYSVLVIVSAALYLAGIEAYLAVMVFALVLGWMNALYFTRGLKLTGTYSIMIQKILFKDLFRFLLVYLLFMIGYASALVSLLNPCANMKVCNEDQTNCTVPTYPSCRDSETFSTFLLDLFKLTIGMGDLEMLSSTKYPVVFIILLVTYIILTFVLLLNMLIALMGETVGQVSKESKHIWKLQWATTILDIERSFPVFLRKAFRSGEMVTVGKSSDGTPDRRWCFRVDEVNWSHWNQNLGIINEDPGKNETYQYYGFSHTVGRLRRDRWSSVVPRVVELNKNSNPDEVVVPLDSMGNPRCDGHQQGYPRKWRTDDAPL
Transient receptor potential cation channel subfamily A member 1, sequence (O75762 whole entry): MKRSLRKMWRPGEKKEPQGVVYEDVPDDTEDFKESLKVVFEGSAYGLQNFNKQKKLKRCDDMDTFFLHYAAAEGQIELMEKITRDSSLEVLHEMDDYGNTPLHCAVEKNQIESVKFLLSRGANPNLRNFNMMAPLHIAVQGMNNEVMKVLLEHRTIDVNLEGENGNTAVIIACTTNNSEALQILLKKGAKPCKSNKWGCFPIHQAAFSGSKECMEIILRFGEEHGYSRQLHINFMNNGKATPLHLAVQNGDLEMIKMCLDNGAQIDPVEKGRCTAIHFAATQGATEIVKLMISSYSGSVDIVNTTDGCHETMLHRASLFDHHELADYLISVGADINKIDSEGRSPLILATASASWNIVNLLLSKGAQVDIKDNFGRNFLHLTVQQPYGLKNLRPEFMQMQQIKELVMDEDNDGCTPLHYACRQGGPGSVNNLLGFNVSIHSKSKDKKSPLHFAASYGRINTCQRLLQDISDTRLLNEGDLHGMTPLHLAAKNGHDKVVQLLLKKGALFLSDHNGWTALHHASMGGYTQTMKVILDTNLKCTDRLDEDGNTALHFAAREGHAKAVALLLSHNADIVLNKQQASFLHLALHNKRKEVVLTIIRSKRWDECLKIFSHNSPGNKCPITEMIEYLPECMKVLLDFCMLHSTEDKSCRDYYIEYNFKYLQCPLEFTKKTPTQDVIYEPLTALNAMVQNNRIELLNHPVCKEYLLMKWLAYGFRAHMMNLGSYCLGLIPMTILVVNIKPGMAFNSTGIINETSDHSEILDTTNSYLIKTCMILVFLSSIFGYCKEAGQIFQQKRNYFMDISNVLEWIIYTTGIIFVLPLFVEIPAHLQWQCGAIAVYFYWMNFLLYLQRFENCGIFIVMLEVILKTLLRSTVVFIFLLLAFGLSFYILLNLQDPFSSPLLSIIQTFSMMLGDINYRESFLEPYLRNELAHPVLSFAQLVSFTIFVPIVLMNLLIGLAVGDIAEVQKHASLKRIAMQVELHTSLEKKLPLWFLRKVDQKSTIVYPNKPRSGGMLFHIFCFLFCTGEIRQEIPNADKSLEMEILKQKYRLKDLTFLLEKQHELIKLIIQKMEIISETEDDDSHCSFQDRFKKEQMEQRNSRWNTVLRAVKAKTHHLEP

IC50 [1]: 800 nM
IC50 [2]: 800 nM
Compound: COc1ccc(Nc2nc(C(=O)N3CCC(C)CC3)cs2)cc1

IC50 [1]: 6300 nM
IC50 [2]: 4000 nM
Compound: Cc1ccc(Nc2nc(C(=O)N3CCC(C4CCCCC4)CC3)cs2)cc1

IC50 [1]: 100 nM
IC50 [3]: 25000 nM
MRT [4]: 0.7 h
IC50 [5]: 6300 nM
IC50 [2]: 16 nM
clearance [6]: 150 mL/min/kg
IC50 [9]: 12500 nM
AUC/dose (Rattus norvegicus [10]): 0.1 kg·L·h
bioavailability [11]: 64%
Cmax [12]: 120 ng/mL
Compound: Cc1sc(Nc2ccc(Cl)cc2F)nc1C(=O)N1CCC[C@H](C)[C@@H]1C
IC50 [7]: 10000 nM
IC50 [8]: 3300 nM

IC50 [1]: 80 nM
IC50 [2]: 16 nM
bioavailability [13]: < 1%
AUC/dose (Rattus norvegicus [14]): 0.2 kg·L·h
clearance [15]: 86 mL/min/kg
Cmax [16]: 340 ng/mL
MRT [17]: 2.1 h
Compound: CC1CCCN(C(=O)c2csc(Nc3ccc4c(c3)OCO4)n2)C1C (configuration not stated)

IC50 [1]: 630 nM
IC50 [2]: 400 nM
Compound: Cc1ccc(Nc2nc(C(=O)N3CCC(C)CC3)cs2)cc1

IC50 [1]: 1260 nM
IC50 [2]: 500 nM
bioavailability [18]: 1%
MRT (Rattus norvegicus [19]): 0.3 h
AUC/dose (Rattus norvegicus [20]): 0.14 kg·h/L
Vdss (Rattus norvegicus [21]): 0.7 L/kg
Cmax [22]: 250 ng/mL
Compound: COc1ccc(Nc2nc(C(=O)N3CCc4ccccc4C3)cs2)cc1

IC50 [1]: 800 nM
IC50 [2]: 800 nM
inhibition [23]: Active
inhibition [24]: Active
Compound: CC1CCN(C(=O)c2csc(Nc3ccc(Cl)cc3)n2)CC1

Cmax [25]: 1800 ng/mL
IC50 [1]: 10000 nM
bioavailability [26]: 65%
AUC/dose (Rattus norvegicus [27]): 1.86 kg·h/L
IC50 [2]: 1260 nM
Vd [28]: 0.7 L/kg
MRT [29]: 1.3 h
clearance [30]: 9.3 mL/min/kg
Compound: Cc1sc(Nc2ccc3c(c2)OCO3)nc1C(=O)N1CCc2ncccc2C1C (configuration not stated)

IC50 [1]: > 25000 nM
IC50 [2]: > 25000 nM
Compound: Cc1ccc(Nc2nc(C(=O)N3CCCC(c4ccccc4)C3)cs2)cc1 (configuration not stated)

IC50 [1]: 1600 nM
IC50 [2]: 630 nM
Compound: CC1CCN(C(=O)c2csc(Nc3ccc(Cl)cc3F)n2)CC1

IC50 [1]: 500 nM
IC50 [2]: 160 nM
Compound: O=C(c1csc(Nc2ccc3c(c2)OCO3)n1)N1CCc2ccccc2C1

IC50 [1]: 316 nM
IC50 [2]: 32 nM
Compound: Cc1sc(Nc2ccc3c(c2)OCO3)nc1C(=O)N1CCc2ccccc2C1C (configuration not stated)
